Test system: NCI-H716 cells
Assay: In vitro GLP-1 secretion-accelerating action: amount of active GLP-1 secreted (ELISA)
Type: cell-based
Conditions: 1 hour; for Significant difference (p < 0.05) vs control group, amount of active GLP-1 secreted: 10 mM, Student's t-test; for Amount of active GLP-1 secreted (relative value to control group as 100), average value: cyclic dipeptide 10 mM with 10 μM Sitagliptin phosphate, group with no cyclic dipeptide = 100
Protocol: Among the cyclic dipeptides, 92 highly water-soluble cyclic dipeptides were used in the following experiment. In each well of a Poly-L-Lysine 96-well plate, NCI-H716 cells suspended in 100 μL of a DMEM (with 10% FBS, 2 mM glutamine, and 1% antibiotics added in advance) were seeded at 0.5×10^5 cells/well, and cultured in a CO2 incubator (manufactured by ESPEC CORP.) for 48 hours. After washing with PBS(+), 100 μL of a PBS(+) solution with each cyclic dipeptide at a final concentration of 10 mM and 10 μM of Sitagliptin phosphate added therein was added to the cells. After 1 hour, the resultant solution was recovered, and the amount of active GLP-1 in the solution was measured by using the ELISA kit. In the analysis, the amount of active GLP-1 for a group with no cyclic dipeptide added was defined as 100, and relative values thereto were used.

O=C1NCC(=O)N2CCC[C@@H]12 [compound 4, cyclo-glycyl-proline]
Significant difference (p < 0.05) vs control group, amount of active GLP-1 secreted (Table 5, Experiment 5): Yes
Amount of active GLP-1 secreted (relative value to control group as 100), average value (Table 5, Experiment 5): 157

O=C1C2CC(O)CN2C(=O)C2CCCN12 (centres unmarked) [compound 74, Cyclo(Hyp-Pro)]
Significant difference (p < 0.05) vs control group, amount of active GLP-1 secreted (Table 2, Experiment 2): No
Amount of active GLP-1 secreted (relative value to control group as 100), average value (Table 2, Experiment 2): 115

O=C(O)CCC1NC(=O)C2CCCN2C1=O (centres unmarked) [compound 45, Cyclo(Glu-Pro)]
Significant difference (p < 0.05) vs control group, amount of active GLP-1 secreted (Table 1, Experiment 1): No
Amount of active GLP-1 secreted (relative value to control group as 100), average value (Table 1, Experiment 1): 145

O=C1N[C@@H](CO)C(=O)N[C@H]1CO [compound 1, Cyclo(Ser-Ser)]
Significant difference (p < 0.05) vs control group, amount of active GLP-1 secreted (Table 1, Experiment 1): No
Amount of active GLP-1 secreted (relative value to control group as 100), average value (Table 1, Experiment 1): 124

O=C1N[C@@H](Cc2c[nH]c3ccccc23)C(=O)N2CCC[C@@H]12 [compound 57, Cyclo(Trp-Pro)]
Significant difference (p < 0.05) vs control group, amount of active GLP-1 secreted (Table 2, Experiment 2): No
Amount of active GLP-1 secreted (relative value to control group as 100), average value (Table 2, Experiment 2): 81

NC(=O)CC[C@@H]1NC(=O)[C@H](CO)NC1=O [compound 136, Cyclo(Gln-Ser)]
Significant difference (p < 0.05) vs control group, amount of active GLP-1 secreted (Table 3, Experiment 3): No
Amount of active GLP-1 secreted (relative value to control group as 100), average value (Table 3, Experiment 3): 251

C[C@@H]1NC(=O)[C@H](CCCCN)NC1=O [compound 69, Cyclo(Ala-Lys)]
Significant difference (p < 0.05) vs control group, amount of active GLP-1 secreted (Table 2, Experiment 2): No
Amount of active GLP-1 secreted (relative value to control group as 100), average value (Table 2, Experiment 2): 161

NCCCCC1NC(=O)CNC1=O (centres unmarked) [compound 96, cyclo-lysyl-glycine]
Significant difference (p < 0.05) vs control group, amount of active GLP-1 secreted (Table 3, Experiment 3): Yes
Amount of active GLP-1 secreted (relative value to control group as 100), average value (Table 3, Experiment 3): 133

O=C1CNC(=O)CN1 [compound 2, Cyclo(Gly-Gly)]
Significant difference (p < 0.05) vs control group, amount of active GLP-1 secreted (Table 5, Experiment 5): No
Amount of active GLP-1 secreted (relative value to control group as 100), average value (Table 5, Experiment 5): 151

C[C@@H]1NC(=O)[C@H](CCC(=O)O)NC1=O [compound 113, Cyclo(Glu-Ala)]
Significant difference (p < 0.05) vs control group, amount of active GLP-1 secreted (Table 3, Experiment 3): No
Amount of active GLP-1 secreted (relative value to control group as 100), average value (Table 3, Experiment 3): 157

CC(C)C[C@@H]1NC(=O)CNC1=O [compound 21, Cyclo(Gly-Leu)]
Significant difference (p < 0.05) vs control group, amount of active GLP-1 secreted (Table 5, Experiment 5): No
Amount of active GLP-1 secreted (relative value to control group as 100), average value (Table 5, Experiment 5): 131

O=C(O)C[C@@H]1NC(=O)CNC1=O [compound 32, Cyclo(Asp-Gly)]
Significant difference (p < 0.05) vs control group, amount of active GLP-1 secreted (Table 5, Experiment 5): Yes
Amount of active GLP-1 secreted (relative value to control group as 100), average value (Table 5, Experiment 5): 12

NC(=O)CCC1NC(=O)C(Cc2ccccc2)NC1=O (centres unmarked) [compound 65, cyclo-glutaminyl-phenylalanine]
Significant difference (p < 0.05) vs control group, amount of active GLP-1 secreted (Table 2, Experiment 2): Yes
Amount of active GLP-1 secreted (relative value to control group as 100), average value (Table 2, Experiment 2): 227

O=C1[C@@H]2CCCN2C(=O)[C@@H]2CCCN12 [compound 6, Cyclo(Pro-Pro)]
Significant difference (p < 0.05) vs control group, amount of active GLP-1 secreted (Table 1, Experiment 1): No
Amount of active GLP-1 secreted (relative value to control group as 100), average value (Table 1, Experiment 1): 87

CC(O)C1NC(=O)C(CCCCN)NC1=O (centres unmarked) [compound 143, Cyclo(Thr-Lys)]
Significant difference (p < 0.05) vs control group, amount of active GLP-1 secreted (Table 3, Experiment 3): No
Amount of active GLP-1 secreted (relative value to control group as 100), average value (Table 3, Experiment 3): 105

CSCC[C@@H]1NC(=O)[C@H](CCC(N)=O)NC1=O [compound 186, cyclo-glutaminyl-methionine]
Significant difference (p < 0.05) vs control group, amount of active GLP-1 secreted (Table 4, Experiment 4): Yes
Amount of active GLP-1 secreted (relative value to control group as 100), average value (Table 4, Experiment 4): 191

— US20170143701A1, “CARBOHYDRATE METABOLISM-AMELIORATING AGENT” (SUNTORY HOLDINGS LIMITED, priority 2014, published 2017)
